Experimental data published in patent US8614203B2, “Methods for the treatment of a central nervous system injury via a tapered administration protocol” (Emory University, priority 2005, dated 2013).

Columns and labels:
GFAP [1] = type: in vivo; conditions: acute withdrawal, lesion (AWL) vs VL; three weeks post-injury
From the text: (§1) 60 male Sprague-Dawley rats weighing 290-310 g at the time of injury were used in this experiment. Food and water were provided ad libidum before and after surgery. Animals were handled and weighed daily from their arrival, seven days pre-surgery, to brain extraction three weeks post-surgery. Animals were handled in squads of 12, with n=10 per experimental condition. All animal procedures were approved by the Emory University Animal Care and Use Committee, Protocol #131-2002.
Isofluorane anesthesia was induced for four minutes and 45 seconds at 5% and maintained at 2.5%. Normal body temperature was maintained with a surgical heating pad placed beneath the sterile dressings. The scalp incision area was shaved and sterilized with iodine and isopropanol. A midline incision was made along the scalp and the fascia cleared to expose the surface of the skull. Medial, lateral, and dorsal stereotaxic coordinates were determined at bregma, and a 5-7 mm diameter bilateral craniotomy was performed mid-sagitally, 3 mm anterior to bregma. […]
All animals were decapitated following a lethal 1 mL injection of Nembutal at three weeks post-injury. […] Thionin-stained sections from 4.2-2.2 mm anterior to bregma were identified and analyzed for lesion area using Kodak ID software. Total brain area was determined by determined by normalizing to the volume of sham brain sections. […]

GFAP [2] = experiment: Example 3: GFAP staining (reactive astrocytes); type: in vivo, Sprague-Dawley rats
Procedure: Male Sprague-Dawley rats received either medial frontal cortex injury or sham surgery. Injections were given 1 and 6 hours post-injury, and every 24 hours for 7 days. Treatment groups (n=8) encompassed injured (I) and sham (S) acute withdrawal (AW), tapered withdrawal (TW) and vehicle (V) treatments. TW injections were progressively halved over the final two treatments. Behavioral testing was conducted post-surgery, mid- and post-withdrawal. Activity boxes were used to investigate vertical movements and exploration: Sensory neglect and anxiety behaviors were also analyzed. Brain harvesting was performed at 8 days or 3 weeks post-injury. Perfused tissue sections were analyzed for lesion volume and immunohistochemical response. Fresh brain tissue was flash frozen in chilled 2-methyl butane, and then homogenized for Western blot analysis.

[3] = tested on: medial frontal cortex (MFC) injury or sham; experiment: Example 4: somatosensory neglect of the forepaws; type: in vivo, Sprague-Dawley rats
From the text: as §1
Isofluorane anesthesia was induced for four minutes and 45 seconds at 5% and maintained at 2.5%. Normal body temperature was maintained with a surgical heating pad placed beneath the sterile dressings. The scalp incision area was shaved and sterilized with iodine and isopropanol. A midline incision was made along the scalp and the fascia cleared to expose the surface of the skull. Medial, lateral, and dorsal stereotaxic coordinates were determined at bregma, and a 5-7 mm diameter bilateral craniotomy was performed mid-sagitally, 3 mm anterior to bregma. […] Sutures were used to close the incision after bleeding ceased. Animals were placed in individual heated, clean recovery cages until they awakened, and were returned to clean individual home cages with accessible moistened food pellets. Sham animals were anesthetized, and an incision was made at the top of the head. The fascia was cleared to expose bregma, then the incision was sutured closed. Sham surgeries were matched to lesion surgeries for all experimental conditions.
Sham (S) and lesion (L) animals were randomly assigned to one of three treatment groups: vehicle (VS, VL), acute withdrawal (AWS, AWL), and tapered withdrawal (TWS, TWL). […] Tapering was induced as halved dosages over the last two days of treatment. Dilutions for TW treatments were made with HBC stock. All injections were administered intraperitoneally at one hour post-injury, and subcutaneously at six hours post-injury and every 24 hours through the end of the treatment cycle. Five sets of 12 animals each were used, for a total n=10 for each experimental group over the entire experiment. Of these animals, all were used to acquire behavioral data, four samples were used for protein analysis, and six samples were used for histological analysis for each test condition.
Random order, blinded testing occurred under red light in a quiet environment at one and seven days post-withdrawal, one hour after locomoter activity testing. 1.3 cm diameter circular labels were placed on the left forepaw and the rat placed in the clear plexiglass testing box. The latency required for each rat to remove the sticker with its mouth was recorded, with maximum test duration of two minutes. Each animal was tested three times, with a rest period of two minutes between trials. The testing box was cleaned with 70% ethanol and dried between trials.
All results were expressed as the mean plus or minus the standard error of the mean. Statistical significance was set at p<0.05 for two-tailed tests, and data were analyzed using one-way analysis of variance (ANOVA) followed by LSD post hoc tests. F-values are presented as a preface to post-hoc analysis with all degrees of freedom for Western blotting at (5,18) and for behavior at (5,26).

CC(=O)[C@H]1CC[C@H]2[C@@H]3CCC4=CC(=O)CC[C@]4(C)[C@H]3CC[C@]12C [progesterone, pregn-4-ene-3,20-dione]
GFAP immunofluorescence luminosity (reactive astrocytes) (GFAP [1]): upregulated in VL (A) animals over AWL (B) animals | reactive astrocytes (GFAP staining) (GFAP [2]; acute withdrawal, injured, rank between TWI and VI): followed by AWL | reactive astrocytes (GFAP staining) (GFAP [2]; tapered withdrawal, injured (TWI)): fewest reactive astrocytes | somatosensory neglect (latency to remove sticker) ([3]; 16 mg/kg in […] HBC, tapered withdrawal, lesion (TWL), one day and one week post-withdrawal): deficiencies were decreased compared to VL and AWL | somatosensory neglect (latency to remove sticker) ([3]; 16 mg/kg, acute withdrawal, lesion (AWL), one day and one week post-withdrawal): AWL and VL did not display differences | somatosensory neglect (latency to remove sticker) ([3]; 16 mg/kg, acute withdrawal, sham (AWS), one day post-withdrawal): elevated sensory deficiencies compared to the TWS and VS groups | somatosensory neglect (latency to remove sticker) ([3]; 16 mg/kg, acute withdrawal, sham (AWS), one week post-withdrawal): these differences were no longer evident | somatosensory neglect (latency to remove sticker) ([3]; tapered withdrawal, sham (TWS), one day and one week post-withdrawal): TWS and VS showed no differences
